Tested on: neutral β-secretase activity
Experiment: β-secretase ELISA (βNTF) with partially purified APP/β-secretase mixture, pH 7.0
Assay type: biochemical, human

detectable levels of β-secretase activity (cardiolipin 0.01–100 μM in assay buffer, pH 7.0, 37° C. 16 hours, FIG. 4A)	Compound	β-secretase inhibition (pH 7)
dose-dependent increase	cardiolipin	–
–	NCCc1ccc(S(=O)(=O)F)cc1 [AEBSF]	dose-dependent β-secretase inhibition
